Experimental data from patent publication US20170112108A1, “GENETICALLY MODIFIED NON-HUMAN MAMMALS HAVING MODIFIED LIVER CELLS AND/OR TISSUE AND METHODS OF MAKING SAME” (priority 2015, published 2017).
Where two headings read alike, the source gives them in different places.

Key:
human liver = conditions: in vivo, cited from earlier work
rats = conditions: bosentan-treated rats; cited from earlier work
[1] = test system: mice, rats, dogs and primates; conditions: cited from earlier work
[2] = test system: clinical trial participants; conditions: of 15 clinical trial participants; cited from earlier work
rat liver = experiment: Serum ALT after GCV in neonatal rats given rAAV-PB-HSVtk and rAAV-PBo; format: in vivo; conditions: 50 mg/kg GCV, 2 injections 2 days apart, 2 weeks after rAAV-PB-HSVtk and rAAV-PBo (5e10 vector genomes each); serum one week later
Protocol: 20% targeted delivery is insufficient to induce desirable liver damage with ganciclovir (GCV). Three day old neonatal rats were injected with 5e10 vector genomes each of rAAV-PB-HSVtk and rAAV-PBo per animal. Due to the stable integration and expression of suicide gene HSVtk mediated by piggyBac transposon multiple injections of ganciclovir (GCV) can be administered over a prolonged period of time. 2 weeks later, each animal was injected with 50 mg/kg GCV (2 injections, 2 days apart). One week later blood serum was collected and analyzed for elevated ALT levels, which is indicative of liver damage. […] ALT levels in the 200-300 range in desirable prior to transplantation of human hepatocytes.

| SMILES | human-specific hepatotoxicity (human liver) | human-specific hepatotoxicity (human liver; listed as Bosetan) | hepatotoxicity in rats (rats) | outcome of preclinical toxicology studies [1] | participants who developed acute liver failure [2] | participants who died [2] | participants who required a liver transplant [2] | serum ALT levels (liver damage) (rat liver) |
| --- | --- | --- | --- | --- | --- | --- | --- | --- |
| COc1ccccc1Oc1c(NS(=O)(=O)c2ccc(C(C)(C)C)cc2)nc(-c2ncccn2)nc1OCCO [Bosentan] | causes hepatotoxicity in a human-specific manner | known to cause human-specific hepatotoxicity | do not develop hepatotoxicity |  |  |  |  |  |
| O=c1[nH]c(=O)n([C@@H]2O[C@H](CO)[C@@H](O)[C@@H]2F)cc1I [FIAU] | known to cause human-specific hepatotoxicity |  |  | cleared all preclinical toxicology studies | seven | five | two |  |
| Nc1nc(O)c2ncn(COC(CO)CO)c2n1 [GCV, ganciclovir] |  |  |  |  |  |  |  | normal ALT levels |
